The values that follow come from PMC10301092, “New Insights into the Opioid Analgesic Profile of cis-(−)-N-Normetazocine-derived Ligands” (Molecules, 2023).

“And” between values parts separate entries of the source, which are not always exact repeats. Identical values can stand only once. Like-named read-outs stand apart in the source and are kept apart here. Where only a bound is given, the exact number is not on record here.

Experiment [1] concerns the target T1, sigma-1 receptor (σ1R) (Homo sapiens, UniProt Q99720). Nature of the experiment: σ1R radioligand binding assay.
Method: (§1) The radioligand binding assays and the data analysis were performed as previously reported [24].
In experiment [2] the target is T2, μ opioid receptor (MOR) (Homo sapiens, UniProt P35372). Put plainly: MOR radioligand binding assay.
T2 sequence (P35372 whole entry, species assumed): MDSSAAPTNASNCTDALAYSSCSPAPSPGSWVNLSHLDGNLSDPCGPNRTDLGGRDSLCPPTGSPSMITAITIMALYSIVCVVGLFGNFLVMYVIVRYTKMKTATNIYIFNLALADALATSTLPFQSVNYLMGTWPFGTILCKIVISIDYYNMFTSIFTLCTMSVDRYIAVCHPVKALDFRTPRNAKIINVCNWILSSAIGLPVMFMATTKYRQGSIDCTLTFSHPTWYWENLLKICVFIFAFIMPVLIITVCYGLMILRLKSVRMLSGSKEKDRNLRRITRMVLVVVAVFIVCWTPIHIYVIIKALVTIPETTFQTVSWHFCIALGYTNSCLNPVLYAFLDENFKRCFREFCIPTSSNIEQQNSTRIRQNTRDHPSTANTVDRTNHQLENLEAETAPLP
Experiment [3] deals with δ opioid receptor (DOR) (Homo sapiens, UniProt P41143). Put plainly: DOR radioligand binding assay.
δ opioid receptor (DOR), sequence (P41143 whole entry): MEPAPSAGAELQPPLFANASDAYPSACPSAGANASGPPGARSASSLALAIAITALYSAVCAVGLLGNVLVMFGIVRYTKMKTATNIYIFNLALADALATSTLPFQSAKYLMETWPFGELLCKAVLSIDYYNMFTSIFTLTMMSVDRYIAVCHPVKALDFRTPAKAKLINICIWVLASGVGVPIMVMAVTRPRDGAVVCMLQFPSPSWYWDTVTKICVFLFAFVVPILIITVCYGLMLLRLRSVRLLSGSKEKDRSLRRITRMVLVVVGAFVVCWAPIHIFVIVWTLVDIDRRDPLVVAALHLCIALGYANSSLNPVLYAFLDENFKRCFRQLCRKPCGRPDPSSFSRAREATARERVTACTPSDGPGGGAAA
The target of experiment [4] is T3, κ opioid receptor (KOR) (Homo sapiens, UniProt P41145). Put plainly: KOR radioligand binding assay.
T3 sequence (P41145 whole entry): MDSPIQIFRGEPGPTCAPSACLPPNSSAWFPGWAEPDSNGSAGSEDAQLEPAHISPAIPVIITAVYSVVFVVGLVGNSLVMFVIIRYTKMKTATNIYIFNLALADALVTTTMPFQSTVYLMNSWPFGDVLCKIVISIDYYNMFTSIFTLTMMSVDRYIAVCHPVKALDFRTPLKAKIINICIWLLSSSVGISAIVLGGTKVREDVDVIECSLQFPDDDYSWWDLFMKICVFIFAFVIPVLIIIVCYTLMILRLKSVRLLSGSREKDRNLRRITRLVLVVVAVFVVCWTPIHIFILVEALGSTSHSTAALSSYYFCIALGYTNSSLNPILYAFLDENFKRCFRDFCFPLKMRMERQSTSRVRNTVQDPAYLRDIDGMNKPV
Experiment [5] has as its target T4, sigma-2 receptor (σ2R) (Homo sapiens, UniProt Q5BJF2). Put plainly: σ2R radioligand binding assay.
Method: as §1
In experiment [6] the target is T5, MOR (Mus musculus, UniProt P42866).
T5 construct: vasa deferentia were removed from the mice; from tissue; host or cells: vas deferens of male NMRI mice
T5 sequence (P42866 whole entry): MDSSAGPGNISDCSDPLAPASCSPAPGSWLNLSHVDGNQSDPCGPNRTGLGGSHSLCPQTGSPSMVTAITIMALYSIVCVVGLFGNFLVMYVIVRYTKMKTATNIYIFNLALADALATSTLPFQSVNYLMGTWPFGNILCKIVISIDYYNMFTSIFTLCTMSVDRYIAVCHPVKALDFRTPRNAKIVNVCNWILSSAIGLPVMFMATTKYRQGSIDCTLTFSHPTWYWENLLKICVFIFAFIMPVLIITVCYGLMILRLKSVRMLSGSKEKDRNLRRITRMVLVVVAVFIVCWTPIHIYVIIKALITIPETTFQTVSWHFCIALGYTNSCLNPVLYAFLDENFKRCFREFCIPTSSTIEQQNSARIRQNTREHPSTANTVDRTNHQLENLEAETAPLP
Nature of the experiment: MVD assay, Ke with naloxone / against DAMGO (MOR). It counts as cell-based. As to conditions: for functional profile at MOR: MVD, result in words; for Ke ± SEM (nM) Naloxone (MOR): Ke of naloxone against the listed agonist in isolated MVD, single-dose method, n = 5–9.
Method: (§2) Isolated mouse vas deferens. The preparation of MVD was carried out as previously described by Hughes et al. [25] with minor modifications. Briefly, vasa deferentia were removed from the mice and unsheathed from the surrounding fat, connective tissue, and blood vessels. […] The upper end of the isolated organ was attached to a transducer using a thread and connected to a computer via an amplifier (PowerLab 4/20, ADInstruments, Castle Hill, NSW, Australia). The resting tension was adjusted to 0.1 g. Electrical field stimulation was applied through trains of 10 Hz with 10 rectangular impulses at a 1 ms pulse width, 9 V/cm (i.e., supramaximal intensity), repeated with 0.1 Hz (Stimulator 88, Grass Medical Instruments, Quincy, MA, USA).
(§3) Data analysis. The efficacy of each test compound to inhibit electrically evoked contraction was measured as the percentage change from baseline. […] Data are presented as the mean ± SEM. Ke values were calculated using dose ratio and the single-dose method [26]. Statistical analysis was performed with one-way ANOVA, followed by the Newman–Keuls post hoc test.

Experiment [7] deals with mouse vas deferens (MVD). Nature of the experiment: Isolated mouse vas deferens (MVD): inhibition of electrically evoked contractions. It counts as cell-based. As to conditions: for IC50: 50% inhibitory concentration on electrically evoked contractions of isolated MVD, n = 5–9. The method, then:
Animals. Male NMRI mice (Toxicoop Zrt., Budapest, Hungary) weighing 35–45 g were kept in groups in a temperature- and humidity-controlled room under a 12 h light/dark cycle and with food and water available ad libitum. Each animal was used for one experiment.
Isolated mouse vas deferens. The preparation of MVD was carried out as previously described by Hughes et al. with minor modifications. Briefly, vasa deferentia were removed from the mice and unsheathed from the surrounding fat, connective tissue, and blood vessels. They were then suspended between an upper (ring) and a lower (straight) electrode positioned at 5.5 cm, in 5 mL organ baths containing Krebs solution (concentrations in mM: NaCl, 118.0; NaHCO3, 25.0; KCl, 4.7; KH2PO4, 1.2; glucose, 11.0; CaCl2, 2.5; and MgSO4, 1.2) aerated with a gas mixture of 95% O2 and 5% CO2 and at a constant temperature of 36 °C. The upper end of the isolated organ was attached to a transducer using a thread and connected to a computer via an amplifier (PowerLab 4/20, ADInstruments, Castle Hill, NSW, Australia). The resting tension was adjusted to 0.1 g. Electrical field stimulation was applied through trains of 10 Hz with 10 rectangular impulses at a 1 ms pulse width, 9 V/cm (i.e., supramaximal intensity), repeated with 0.1 Hz (Stimulator 88, Grass Medical Instruments, Quincy, MA, USA).
Experimental paradigms. The experimental design of MVD required a 50 min equilibration period under electrical field stimulation, during which Krebs solution was changed every 5 min. After the equilibration period, test compounds were added cumulatively, allowing a minimum of 2 min between doses. To determine the test compounds’ dissociation constant, Ke, vasa deferentia were preincubated with the antagonist naloxone, and without washing a single concentration of the agonist test, the compound was added.
Data analysis. The efficacy of each test compound to inhibit electrically evoked contraction was measured as the percentage change from baseline. […] Data are presented as the mean ± SEM. Ke values were calculated using dose ratio and the single-dose method. […]

Experiment [8] concerns the target T6, KOR (Mus musculus, UniProt P33534).
T6 construct: vasa deferentia were removed from the mice; from tissue; host or cells: vas deferens of male NMRI mice
Put plainly: MVD assay, Ke with nor-BNI (KOR). It counts as cell-based. As to conditions: Ke of nor-BNI against the listed agonist in isolated MVD; n = 5–9.
Method: as §2, §3

The subject of experiment [9] is Male Swiss CD1 mice. Put plainly: Thermal acute pain model (radiant heat tail-flick test). It counts as in vivo, mouse. The method, then: Thermal acute pain model (tail-flick test). Male Swiss CD1 mice (Envigo Laboratories, S. Pietro al Natisone (UD)) weighing 25–30 g were housed at six per cage, kept at a constant room temperature (25 ± 1 °C), under a 12:12 h light-and-dark cycle with food and water ad libitum. Each mouse was used for only one experiment. […] The radiant heat tail-flick test consists of irradiation of the lower third of the tail with an infrared source (Ugo Basile, Comerio, Italy). The day before the experiment, performed at room temperature (25 ± 1 °C), mice were habituated to the procedure for measuring the nociception threshold. The basal predrug latency was established between 3 and 6 s and was calculated as the average of the first three measurements, which were performed at 5 min intervals. A cutoff latency of 15 s was established to minimize damage to the tail. All tested compounds were dissolved in pyrogen-free isotonic saline (Baxter Healthcare, Deerfield, IL, USA) and DMSO (5%) and were administered to mice i.p. Post-treatment tail-flick latencies (TFLs) were determined at 15, 30, 45, 60, and 90 min after i.p. injection.
A general note: Thermal pain tests record how soon the animal reacts.

Experiment [10] concerns Male Wistar rats. Nature of the experiment: Inflammatory pain model (CFA-evoked hyperalgesia, Randall–Selitto paw pressure threshold). The format is in vivo, rat. Conditions: s.c. The method, then: Inflammatory pain model (CFA-evoked hyperalgesia). Male Wistar rats (190–250 g) (Toxicoop Zrt., Budapest, Hungary) under brief isoflurane (Willy Rüsch GmbH, Böblingen, Germany) anesthesia received i.pl. injection of 0.15 mL complete Freund’s adjuvant (CFA) (source), a water-in-oil emulsion of killed mycobacterium, into the right hind paw. The experimental procedures were performed as described previously.
Experimental paradigms of CFA-evoked hyperalgesia. The measurement of the effect of the test compound was carried out 4 days following i.pl. CFA injection as described previously. Briefly, the baseline (pretest compound) of the paw pressure threshold (PPT) of both inflamed and noninflamed paws was determined. Next, the drug or vehicle was s.c. administered at a volume of 5 mL/kg body weight. Then, the response threshold to mechanical pressure stimulation of inflamed and noninflamed paws was given as paw pressure thresholds (PPTs) and measured at 30 and 60 min post administration using an arbitrary cutoff weight of twice the baseline.

Experiment [11] has as its target T7, DOR (Mus musculus, UniProt P32300).
T7 construct: vasa deferentia were removed from the mice; from tissue; host or cells: vas deferens of male NMRI mice
Put plainly: MVD assay, Ke with naltrindole (DOR). The format is cell-based. Conditions: Ke of naltrindole against the listed agonist in isolated MVD; n = 5–9.
Method: as §2
Experimental paradigms. The experimental design of MVD required a 50 min equilibration period under electrical field stimulation, during which Krebs solution was changed every 5 min. […]
Data analysis. The efficacy of each test compound to inhibit electrically evoked contraction was measured as the percentage change from baseline. […] Ke values were calculated using dose ratio and the single-dose method [26]. […]

Experiment [12] concerns the target T3, κ opioid receptor (KOR). Conditions: read-out: Ki (nM) ± SD KOR; cited from earlier work.
For experiment [13], the target named is T1, sigma-1 receptor (σ1R). Conditions: read-out: Ki (nM) ± SD σ1R; cited from earlier work.
Experiment [14] concerns the target T4, sigma-2 receptor (σ2R). As to conditions: read-out: Ki (nM) ± SD σ2R; cited from earlier work.
The target in experiment [15] is T2, μ opioid receptor (MOR). As to conditions: read-out: Ki (nM) ± SD MOR; cited from earlier work.
The mark [16] stands for this setting: mean ± SD of at least two experiments in duplicate, read-out: Ki (nM) ± SD MOR.
The mark [17] stands for this setting: mean ± SD of at least two experiments in duplicate, read-out: Ki (nM) ± SD DOR.
Where [18] appears, read: mean ± SD of at least two experiments in duplicate, read-out: Ki (nM) ± SD KOR.

T4 sequence (Q5BJF2 whole entry): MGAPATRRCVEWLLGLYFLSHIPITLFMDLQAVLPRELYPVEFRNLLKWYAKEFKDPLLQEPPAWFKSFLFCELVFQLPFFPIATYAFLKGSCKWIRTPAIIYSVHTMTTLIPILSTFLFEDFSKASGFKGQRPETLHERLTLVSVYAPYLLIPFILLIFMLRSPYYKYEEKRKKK
T6 sequence (P33534 whole entry): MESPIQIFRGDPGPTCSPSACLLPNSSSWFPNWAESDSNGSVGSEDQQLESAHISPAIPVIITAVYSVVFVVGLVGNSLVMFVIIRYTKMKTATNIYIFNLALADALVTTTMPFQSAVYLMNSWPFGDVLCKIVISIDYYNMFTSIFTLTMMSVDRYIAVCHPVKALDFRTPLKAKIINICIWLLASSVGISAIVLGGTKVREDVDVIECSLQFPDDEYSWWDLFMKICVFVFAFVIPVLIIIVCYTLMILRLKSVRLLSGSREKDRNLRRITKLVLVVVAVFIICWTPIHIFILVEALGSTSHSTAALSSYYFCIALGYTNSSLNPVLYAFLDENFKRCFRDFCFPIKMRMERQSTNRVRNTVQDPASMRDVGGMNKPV
T1 sequence (Q99720 whole entry, species assumed): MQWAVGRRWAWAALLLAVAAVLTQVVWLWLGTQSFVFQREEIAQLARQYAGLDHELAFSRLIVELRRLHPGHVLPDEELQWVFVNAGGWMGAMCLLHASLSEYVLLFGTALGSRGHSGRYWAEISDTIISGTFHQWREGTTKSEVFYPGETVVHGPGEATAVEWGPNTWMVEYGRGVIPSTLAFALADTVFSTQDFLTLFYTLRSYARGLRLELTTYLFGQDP
T7 sequence (P32300 whole entry): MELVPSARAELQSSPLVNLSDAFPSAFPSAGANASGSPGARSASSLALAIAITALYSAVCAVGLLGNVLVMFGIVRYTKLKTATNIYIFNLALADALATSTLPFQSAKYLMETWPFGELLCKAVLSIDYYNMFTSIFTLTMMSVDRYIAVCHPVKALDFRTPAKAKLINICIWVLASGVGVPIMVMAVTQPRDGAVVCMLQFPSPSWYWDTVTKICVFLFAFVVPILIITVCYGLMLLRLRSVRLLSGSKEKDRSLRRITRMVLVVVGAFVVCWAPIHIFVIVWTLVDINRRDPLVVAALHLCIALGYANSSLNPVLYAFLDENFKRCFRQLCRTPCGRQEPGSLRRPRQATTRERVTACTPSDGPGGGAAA

For orientation: Ki means the dissociation constant of the complex between target and ligand, obtained from inhibition or displacement. Take `CN1CCN(CCc2ccc(Cl)c(Cl)c2)CC1` [BD-1063, reference compound]: the inhibition constant Ki in [1] (mean ± SD of at least two experiments in duplicate, read-out: Ki (nM) ± SD σ1R) is 14 ± 2.7 nM.

On to `C[C@H]1[C@H]2Cc3ccc(O)cc3[C@]1(C)CCN2CCC(=O)Nc1ccccc1N` [Compound 3, N-(2-aminophenyl)-3-((2R,6R,11R)-8-hydroxy-6,11-dimethyl-1,4,5,6-tetrahydro-2,6-methanobenzo[d]azocin-3(2H)-yl)propanamide], for which the Ki in experiment [2] is 5.96 ± 0.08 nM; in experiment [3], 155 ± 1.5 nM; in experiment [4], 93 ± 0.63 nM; in [1], > 10000 nM; in experiment [5] it was > 10 µM. Also, the “functional profile at MOR” value in experiment [6] is on record as “antagonist”.

In the case of `C[C@@H]1[C@@H]2Cc3ccc(O)cc3[C@@]1(C)CCN2CCC(=O)Nc1ccccc1N` [Compound 4, N-(2-aminophenyl)-3-((2S,6S,11S)-8-hydroxy-6,11-dimethyl-1,4,5,6-tetrahydro-2,6-methanobenzo[d]azocin-3(2H)-yl)propanamide], the Ki was 408 ± 11 nM in [2]; 3120 ± 73 nM in [3]; 154 ± 6 nM in experiment [4]; 729 ± 168 nM in experiment [1]; > 10 µM in experiment [5].

For `C[C@H]1[C@H]2Cc3ccc(O)cc3[C@]1(C)CCN2CCCC(=O)Nc1ccccc1N` [Compound 5, N-(2-aminophenyl)-4-((2R,6R,11R)-8-hydroxy-6,11-dimethyl-1,4,5,6tetrahydro-2,6-methanobenzo[d]azocin-3(2H)-yl)butanamide], the inhibition constant Ki in [2] (setting [16]) is 479 ± 10 nM; in experiment [3] (setting [17]), 1030 ± 16 nM; in experiment [4] (setting [18]), 970 ± 21 nM; in [1], > 10000 nM; in experiment [5], > 10 µM.

On to `C[C@@H]1[C@@H]2Cc3ccc(O)cc3[C@@]1(C)CCN2CCCC(=O)Nc1ccccc1N` [Compound 6, N-(2-aminophenyl)-4-((2S,6S,11S)-8-hydroxy-6,11-dimethyl-1,4,5,6tetrahydro-2,6-methanobenzo[d]azocin-3(2H)-yl)butanamide], for which the Ki in experiment [2] (setting [16]) is 810 ± 15 nM; in experiment [3] (setting [17]) it was 4190 ± 60 nM; in [4] (setting [18]), 2455 ± 11 nM; in experiment [1], 857 ± 212 nM; in experiment [5], > 10 µM.

As a reminder, the IC50 is the concentration at which inhibition is half-maximal. Low readings indicate greater potency in that assay, high ones weaker potency in that assay. Take `C[C@H]1[C@H]2Cc3ccc(O)cc3[C@]1(C)CCN2CCC(=O)Nc1ccccn1` [Compound 7, 3-((2R,6R,11R)-8-hydroxy-6,11-dimethyl-1,4,5,6-tetrahydro-2,6-methanobenzo[d]azocin-3(2H)-yl)-N-(pyridin-2-yl)propanamide]: the inhibition constant (Ki) in [2] was 1.49 ± 0.24 nM; in experiment [3], 138 ± 5 nM; in experiment [4], 64 ± 7 nM; in experiment [1], > 10000 nM; in experiment [5] it was > 10 µM. In experiment [7] (Mus musculus), this molecule showed a concentration for half-maximal inhibition (IC50) of 0.06688 ± 0.00038 µM. In experiment [7] (result in words), the “effect on electrically evoked MVD smooth muscle contractions” value is reported as “concentration-dependent inhibitory effect”. The “Ke ± SEM (nM) Naloxone (MOR)” value in [6] amounted to 2.42 ± 0.45 nM. The “functional profile at MOR” value in [6] is listed as “agonist”. Moreover, the “Ke ± SEM (nM) Nor-BNI (KOR)” value in experiment [8] is on record as 68.18 ± 15.98 nM. Besides, the “effect on mean tail-flick latency” value in [9] (i.p., 3, 4, and 5 mg/kg, compared with vehicle group) is on record as “increased the mean tail-flick latency”. Also, the “time of highest antinociceptive effect” value in [9] (tail-flick, after i.p. injection) is 45 min and 30 to 45 min. For the same molecule, the “restoring hyperalgesia of inflamed paws (PPT)” value in experiment [10] (5000 and 2500 µg/kg, at 30 and 60 min) was “effective”; in experiment [10] (lower doses of the range 625–5000 µg/kg), “tendency of antinociceptive effect”. Also, in experiment [10] (in certain doses, compared with vehicle), the “effect on noninflamed PPT” value is listed as “significantly increase the noninflamed PPT”.

For `C[C@@H]1[C@@H]2Cc3ccc(O)cc3[C@@]1(C)CCN2CCC(=O)Nc1ccccn1` [Compound 8, 3-((2S,6S,11S)-8-hydroxy-6,11-dimethyl-1,4,5,6-tetrahydro-2,6-methanobenzo[d]azocin-3(2H)-yl)-N-(pyridin-2-yl)propanamide], the Ki in experiment [2] is 563 ± 23 nM; in [3], > 10000 nM; in experiment [4], 1380 ± 20 nM; in [1], 2510 ± 737 nM; in [5] it was > 10 µM.

As to `CC1(C)SSC(C)(C)[C@@H](NC(=O)[C@@H](N)Cc2ccc(O)cc2)C(=O)NCC(=O)N[C@@H](Cc2ccccc2)C(=O)N[C@H]1C(=O)O` [DPDPE], in experiment [8], the “Ke ± SEM (nM) Nor-BNI (KOR)” value is recorded as 2.57 ± 1.81 nM.

`CC[C@@]12CCN(CC3CC3)C(C(=O)c3ccc(O)cc31)[C@@H]2C` [EKC, reference compound] gave an IC50 in experiment [7] of 0.0141 ± 0.00069 µM. Besides, the “Ke ± SEM (nM) Naloxone (MOR)” value in experiment [6] worked out at 8.82 ± 0.52 nM. The “Ke ± SEM (nM) Naltrindole (DOR)” value in experiment [11] is on record as 11.47 ± 5.35 nM. Besides, the “Ke ± SEM (nM) Nor-BNI (KOR)” value in experiment [8] turned out to be 1.76 ± 0.35 nM.

Take `C[C@H]1[C@H]2Cc3ccc(O)cc3[C@]1(C)CCN2CCC(=O)Nc1ccccc1` [LP1]: in experiment [2] (ratio of Ki DOR to Ki MOR), the “Ki Ratios DOR/MOR” value was found to be 35.1. For the same molecule, the “Ki Ratios KOR/MOR” value in experiment [2] (ratio of Ki KOR to Ki MOR) came to 132.5. In addition, the inhibitory constant (Ki) in [12] is 110 ± 6 nM; in experiment [13], 149 ± 4 nM; in experiment [14], 1680 nM.

Regarding `CCC(=O)N(CC)c1ccccc1` [N-ethyl-N-phenyl-propanamide], in experiment [15], the inhibition constant Ki was 136 nM.

As for `CCC(=O)N(C)c1ccccc1` [N-methyl-N-phenyl-propanamide], the Ki in experiment [15] was 65 nM.
